The text below walks through data of US8731655B2, “Compounds containing acyclic N-N bonds for phototherapy” (Mallinckrodt LLC, priority 2009, dated 2014).

The nature of series [1]: Cell viability upon exposure of tumor cells to photosensitizer and light. It is filed as cell-based, human. The note with it: human, U937 myeloid leukemia cells; U937 cells, 10.0 μM photosensitizer, no light exposure; read-out: percent viability. Here is the method:
(§1) Abstract: A class of Type 1 photosensitizer containing fragile —N—N— bonds that produce reactive intermediates upon photoexcitation was prepared and tested in vitro. U937 leukemia cells were incubated with the photosensitizer at various concentrations and irradiated with 325-425 nm light at various durations.
(§2) Cell Viability Measurements: A general procedure is carried out for measuring cell viability upon exposure of tumor cells to a photosensitizer having Formula (FX23) or (FX25) and light. The photosensitizer (FX23) has an absorption maxima (λmax) of 385 nm. The cell viability analysis is carried out using human myeloid leukemia U937 cell line by the standard WST-1 assay. In this procedure, U397 Luekemia cells (0.5×10^6) are plated in standard T-25 cell culture flasks, and are exposed to four controls and a series of test conditions corresponding to a range of photosensitizer concentrations.
(§3) The photosensitizers having formula (FX23) and (FX25) are dissolved in DMSO at an initial concentration of about 8 mM and diluted with water to the final desired value such that amount of DMSO exposed to the cells is below 0.5%. The cells are incubated at 37° C. with various concentrations the photosensitizer for about 30 minutes prior to the exposure of light. […] It should be noted that in the present study, the light source is not optimized with respect to power and wavelength. The viability of cells is assessed after 24 hours following light exposure. The light source is a B-100SP High Intensity Lamp from UVP. Once exposure is complete, cells are processed to determine percent viability using Hank's Balanced Salt Solution (HBSS), Trypan blue stain, and a hemacytometer to count live and dead cells. The number of viable cells is determined and percent viability is determined

Series [2] concerns human myeloid leukemia U937 cell line. Described as above. The class given is cell-based. The note with it: for cell viability result in words: U937 cells exposed to light in presence of photosensitizer, various concentrations and durations; for percent viability: U937 cells. Here is the method:
as §1, §2, §3

Series [3] is described as follows: Absorption maxima of photosensitizer. It is filed as physicochemical.

A word on the viability: it is a read-out of living cells in per cent, often relative to untreated cells. As for `COc1cc(OC)c(/C=N/Nc2c3ccccc3nc3ccccc23)c(OC)c1` [FX25], the viability at 10 μM in series [1] turned out to be 60%. In addition, in series [2], the “cell viability result in words” value is “concentration-dependent and light exposure time-dependent decrease in cell viability”. The percent viability in series [2] (1.25 μM photosensitizer, light exposure 10 minutes) stood at 100%; in series [2] (1.25 μM photosensitizer, light exposure 20 minutes) it was 100%; in series [2] (5.0 μM photosensitizer, light exposure 10 minutes), 65%; in series [2] (5.0 μM photosensitizer, light exposure 20 minutes) it was 10%; in series [2] (10.0 μM photosensitizer, light exposure 10 minutes), 40%; in series [2] (10.0 μM photosensitizer, light exposure 20 minutes), 4%.

Turning to `CCOC(=O)NN(C(=O)OCC)c1c2ccccc2cc2ccccc12` [FX23], in series [2] (Homo sapiens, U-937, 20 min, U937 cells exposed to light and the photosensitizer for 20 minutes, read-out: VC50/20 (concentration at which 50% decrease in cell viability is observed)), the IC50 is 130 ± 30 nM. The “cell viability result in words” value in series [2] was “concentration-dependent and light exposure time-dependent decrease in cell viability”. In addition, the percent viability in series [2] (0.16 μM photosensitizer, light exposure 5 minutes (325-425 nm lamp), viability 24 h after exposure) stood at 78%; in series [2] (0.16 μM photosensitizer, light exposure 10 minutes), 40%; in series [2] (0.16 μM photosensitizer, light exposure 20 minutes), 40%; in series [2] (0.32 μM photosensitizer, light exposure 5 minutes), 41%; in series [2] (0.32 μM photosensitizer, light exposure 10 minutes), 5%; in series [2] (0.32 μM photosensitizer, light exposure 20 minutes), 5%. Moreover, the percent viability is 5% in series [2] (0.63 μM photosensitizer, light exposure 5 minutes); 5% in series [2] (0.63 μM photosensitizer, light exposure 10 minutes); 4% in series [2] (0.63 μM photosensitizer, light exposure 20 minutes). For the same molecule, in series [3], the “absorption maxima (λmax)” value worked out at 385 nm.
